Results from US5428048A, “Aryl-N-hydroxyureas as inhibitors of 5-lipoxygenase and anto-arteriosclerotic agents” (American Home Products Corporation, priority 1993, dated 1995).

What was measured:
LTB4 Synthesis = experiment: Reverse Passive Arthus Reaction (pleurisy, LTB4 in pleural exudate); format: in vivo, male Lewis rats; settings: for % Inhibition of LTB4 / ED50: standard drugs; for ED50: Rattus norvegicus, po, ED50 printed in parentheses; for % Inhibition LTB4 Synthesis: 25 mg/kg p.o.
Procedure: 3. Reverse Passive Arthus Reaction
A reverse passive Arthus reaction is induced in the pleural cavity of male Lewis rats (150°-200 g; fasted overnight prior to use) by the intravenous administration of bovine serum albumin (BSA; 4 mg/0.2 ml) followed 30 minutes later by the injection of rabbit anti-BSA (1 mg/0.2 ml; lyophilized IgG fraction; Organon Teknika, West Chester, Pa.) into the right pleural space under halothane anesthesia. Drugs or vehicle (0.5% Tween-80) control are administered orally in a volume of 1 ml/100 g body weight at 1 hour prior to the anti-BSA. Animals are sacrificed at either the time of peak eicosanoid production (i.e. 5 minutes after anti-BSA for immunoreactive TxB2, 10 minutes for immunoreactive LTB4, 20 minutes for immunoreactive LTC4) or at the time of peak neutrophil infiltration (4 hours after anti-BSA) by CO2 inhalation. The pleural cavity is then exposed, the fluid exudate removed by gentle vacuum aspiration and the volume of exudate is recorded. For the determination of cellular infiltration, the pleural cavity is rinsed with 3 ml of 0.1% EDTA in sterile saline, and the recovered wash is pooled with the exudate. Cell number is determined on a model ZBI Coulter counter. For determination of eicosanoid production, undiluted pleural exudate is microfuged and the supernatant is extracted with ethanol (8-10 times volume). Extracts are either stored at -20° C., or are evaporated to dryness under a stream of N2 and reconstituted in radioimmunoassay (RIA) buffer.
Eicosanoids are quantitated by RIA according to the procedure specified by the RIA kit manufacturer (Advanced Magnetics, Cambridge, MA). Briefly, 100 μl of ^3 H-labeled eicosanoid and 100 μl of specific antibody ,are sequentially added to 100 μl of extracted pleural exudate in BGG-phosphate buffer which contains 0.01M phosphate, 0.1% bovine gamma globulin and 0.1% sodium azide at pH 7.0. Antibody-bound eicosanoid is separated from unbound eicosanoid by the addition of 750 μl of dextran (0.4%)-coated charcoal (Norit A) containing 0.1% sodium azide. The mixture is centrifuged at 2000 RPM at 5° C. for 15 minutes to pellet the charcoal and adsorbed unbound eicosanoid. Antibody-bound labeled eicosanoid is quantitated by counting in a liquid scintillation counter, and is correlated to concentration by a standard curve.

5-Lipoxygenase = biological target: T1, 5-Lipoxygenase (Homo sapiens, UniProt P09917); experiment: Inhibition of 5-Lipoxygenase in Human Whole Blood (ionophore A23187-stimulated LTB4); format: cell-based
T1 construct: endogenous in cells; host or cells: whole blood of male human donors (results per 10^6 neutrophils)
T1 sequence (P09917 1-674): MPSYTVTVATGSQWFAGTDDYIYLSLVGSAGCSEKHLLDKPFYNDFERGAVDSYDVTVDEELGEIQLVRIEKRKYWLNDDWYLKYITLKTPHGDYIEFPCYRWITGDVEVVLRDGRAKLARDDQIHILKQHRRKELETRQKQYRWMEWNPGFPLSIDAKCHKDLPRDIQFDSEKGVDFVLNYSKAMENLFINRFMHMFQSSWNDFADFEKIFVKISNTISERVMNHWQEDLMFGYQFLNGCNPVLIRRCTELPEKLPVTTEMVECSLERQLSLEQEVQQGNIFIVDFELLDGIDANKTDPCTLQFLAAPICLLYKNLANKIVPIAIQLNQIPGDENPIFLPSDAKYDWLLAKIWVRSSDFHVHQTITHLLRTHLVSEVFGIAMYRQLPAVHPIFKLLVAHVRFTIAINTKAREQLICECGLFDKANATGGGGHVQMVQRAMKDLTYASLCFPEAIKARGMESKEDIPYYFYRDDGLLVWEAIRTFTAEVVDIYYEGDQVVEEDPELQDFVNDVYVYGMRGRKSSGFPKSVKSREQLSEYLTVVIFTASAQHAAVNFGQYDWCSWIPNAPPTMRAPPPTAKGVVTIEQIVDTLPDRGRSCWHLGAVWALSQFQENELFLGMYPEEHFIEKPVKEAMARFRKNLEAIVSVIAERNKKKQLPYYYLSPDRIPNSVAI
Procedure: 1. Inhibition of 5-Lipoxygenase in Human Whole Blood
Blood is obtained in 50-100 ml quantities from male donors. White blood cell counts and differentials are made. Two ml of blood are placed in a 15 ml polypropylene test tube. Test compounds are solubilized in dimethylsulfoxide and diluted in 1:10 in 10% bovine serum albumin in phosphate buffered saline, pH 7.4 resulting in a final dimethylsulfoxide concentration of 0.1% in the blood. Then, solutions of test compounds are added to the blood in a shaking water bath at 37° C. for 10 minutes prior to the addition of 30 μM calcium ionophore (A23187, Sigma). After ionophore administration, whole blood samples are mixed and incubated for 20 minutes at 37° C. in a shaking water bath. Incubation is terminated by placing samples in an ice bath and immediately adding ethylene glycol-bis-(β-aminoethyl ether)-N, N,N',N'-tetraacetic acid (10 mM). Samples are mixed and centrifuged at 1200×g for 15 minutes at […]. Preparation of samples for evaluation by RIA or ELISA is carded out by the following protocol. Plasma is removed from sample tubes, placed in 15 ml polypropylene test tubes containing 8 ml methanol, and then vortexed to precipitate protein. Samples are stored at -70° C. overnight. The next day, samples are centrifuged at 200×g for 15 minutes at 4° C. to pellet the precipitate. Samples are dried in a Savant SpeedVac Concentrator, Model SVC 200H, reconstituted to original volume with ice cold RIA or ELISA buffer, and stored at -70° C. until assayed. The assay for eicosanoids (LTB4, TxB2, and PGE2) is performed as described by the manufacturer of the [^3 H]-RIA kit or ELISA kit (LTB4 -Amersham, TxB2 and PGE2 - Caymen Chemical).
The total eicosanoid level in 2 ml of blood is calculated and reported as ng/10^6 neutrophils. Significance is determined by a one-way analysis of variance with least significant difference (LSD) comparisons to control (p≤0.05) and IC50 's (μM) are determined by regression analysis (Finney, 1978). Drug effects are expressed as percent change from control values.

Lipoxygenase = experiment: Ex-Vivo Measurement of Lipoxygenase Inhibition in Orally Dosed Rats (LTB4 in A23187-stimulated blood); design: species or system Male Sprague Dawley rats; settings: ex vivo rat, p.o., pretreatment 3 hr
Procedure: 2. […] After an interval of 3 or 6 hours, the rats were anesthetized with metofane (n =4/group) and blood collected in heparinized tubes. White blood cell counts and differentials were made. One ml of blood from each animal was placed in a 5 ml plastic tube in a shaker bath at 37° C. A23187 at a final concentration of 10 μM was added to the blood and the blood vortexed and incubated for 15 min at 37° C. with gentle shaking. Incubation was terminated by vortexing sample and centrifuging immediately at 1200 xG for 15 min at 4° C. The plasma was transferred to 15 ml plastic tubes each containing 8 ml of methanol to precipitate protein followed by vortexing. The samples were stored at -70° C. overnight and the next day the samples were centrifuged at 800 xG for 15 min to pellet the precipitate. The samples were dried in a Savant SpeedVac Concentrator Model SVC 200H and reconstituted to the original volume with cold RIA or ELISA buffer. The reconstituted samples were stored at -70° C. until assayed. The assay for LTB4 was perforated according to the directions of the [^3 H]RIA kit or ELISA kit (Seragen). The total metabolite level in 1 ml of blood is calculated and reported as ng/10^6 neutrophils. Significance is determined by a one-way analysis of variance with LSD comparisons to control (p<0.05).

## COc1ccc2c(c1)c(CC(=O)O)c(C)n2C(=O)c1ccc(Cl)cc1 [Indomethacin, reference compound]
LTB4 Synthesis; 4 mg/kg p.o.
  % Inhibition of LTB4: 12%

## O=C1CCN(c2ccccc2)N1 [Phenidone, reference compound]
LTB4 Synthesis
  ED50: 10 mg/kg

## NC(=O)N(O)Cc1cccc(OCCc2csc(-c3ccc(C(F)(F)F)cc3)n2)c1 [Example 20, 1-Hydroxy-1-[3-[2-[2-(4-trifluoromethyl-phenyl)-thiazol-4-yl]-ethoxy]-benzyl]-urea]
5-Lipoxygenase
  inhibition at 1 µM: 30%

## Cc1oc(-c2ccccc2)nc1CCOc1cccc(C(C)N(O)C(N)=O)c1 (centres unmarked) [Example 5, 1-Hydroxy-1-[1-[3-[2-(5-methyl-2-phenyl-oxazol-4-yl)-ethoxy]-phenyl]ethyl]-urea]
5-Lipoxygenase
  inhibition at 1 µM: 34%

## CN(CCOc1ccc(CN(O)C(N)=O)cc1)c1nc2ccccc2o1 [Example 22, 1-[4-[2-(-Benzoxazol-2-yl-methyl-amino)-ethoxy]-benzyl]-1-hydroxy-urea]
5-Lipoxygenase
  inhibition at 10 µM: 60%

## CC(=O)N(O)Cc1ccc(OCCN(C)c2nc3ccccc3o2)cc1 [Example 23, N-[4-[2-(Benzoxazol-2-yl-methyl-amino)-ethoxy]-benzyl]-N-hydroxy-acetamide]
5-Lipoxygenase
  inhibition at 1 µM: 39%
Lipoxygenase; dose 25 (mg/kg)
  % Inhibition of LTB4: 78%

## Cc1oc(-c2ccc(C(F)(F)F)cc2)nc1CCOc1ccc(CN(O)C(N)=O)cc1F [Example 14]
5-Lipoxygenase
  inhibition at 1 µM: 36%

## Cc1oc(-c2ccccc2)nc1CCOc1cccc(CN(O)C(N)=O)c1 [Example 2, 1-Hydroxy-1-[3-[2-(5-methyl-2-phenyl-oxazol-4-yl)-ethoxy]-benzyl]-urea]
5-Lipoxygenase
  inhibition at 1 µM: 51%
Lipoxygenase; dose 25 (mg/kg)
  % Inhibition of LTB4: 21%
LTB4 Synthesis
  % Inhibition LTB4 Synthesis: 53%

## COc1ccc(-c2nc(CCOc3ccc(CN(O)C(N)=O)cc3)c(C)o2)cc1 [Example 3, 1-Hydroxy-1-[4-[2-[2-(4-methoxy-phenyl)-5-methyl-oxazol-4-yl]-ethoxy]benzyl]-urea]
5-Lipoxygenase
  inhibition at 1 µM: 57%
Lipoxygenase; dose 25 (mg/kg)
  % Inhibition of LTB4: 32%

## NC(=S)N(O)Cc1ccc(OCCc2csc(-c3ccccc3)n2)cc1 [Example 18]
5-Lipoxygenase
  inhibition at 10 µM: 94%

## Cc1oc(-c2ccc(F)cc2)nc1CCOc1ccc(CN(O)C(N)=O)cc1 [Example 8, 1-[4-[2-[2-(4-Fluoro-phenyl)-5-methyl-oxazol-4-yl)-ethoxy]-benzyl]-1-hydroxy-urea]
5-Lipoxygenase
  inhibition at 1 µM: 70%
Lipoxygenase; dose 10 (mg/kg)
  % Inhibition of LTB4: 66%

## Cc1oc(-c2ccc(C(F)(F)F)cc2)nc1CCOc1c(Cl)cc(CN(O)C(N)=O)cc1Cl [Example 15, 1-[3,5-Dichloro-4-[2-[5-methyl-2-(4-trifluoromethyl-phenyl)-oxazol-4-yl]ethoxy]-benzyl]-1-hydroxy-urea]
5-Lipoxygenase
  inhibition at 1 µM: 38%

## NC(=O)N(O)Cc1ccc(OCCc2csc(-c3ccccc3)n2)cc1 [Example 17, 1-Hydroxy-1-[4-[2-(2-phenyl-thiazol-4-yl)-ethoxy]-benzyl]-urea]
5-Lipoxygenase
  inhibition at 10 µM: 93%

## Cc1cc(OCCc2nc(-c3ccccc3)oc2C)cc(C)c1CN(O)C(N)=O [Example 9, 1-[2,6-Dimethyl-4-[2-(5-methyl-2-phenyl-oxazol-4-yl)-ethoxy]-benzyl]-1-hydroxy-urea]
5-Lipoxygenase
  inhibition at 10 µM: 42%

## COc1ccc2cc([C@H](C)C(=O)O)ccc2c1 [Naproxen, reference compound]
LTB4 Synthesis; 4 mg/kg p.o.
  % Inhibition of LTB4: 0%

## CC(C(=O)O)c1cccc(C(=O)c2ccccc2)c1 (centres unmarked) [Ketoprofen, reference compound]
LTB4 Synthesis; 10 mg/kg p.o.
  % Inhibition of LTB4: 35%

## NC1=NN(c2cccc(C(F)(F)F)c2)CC1 [BW755C, reference compound]
LTB4 Synthesis
  ED50: 23 mg/kg

## Cc1oc(-c2cccc(F)c2)nc1CCOc1ccc(CN(O)C(N)=O)cc1 [Example 7]
5-Lipoxygenase
  inhibition at 1 µM: 63%
Lipoxygenase; dose 10 (mg/kg)
  % Inhibition of LTB4: 79%
LTB4 Synthesis
  % Inhibition LTB4 Synthesis: 38%

## COC(=O)N(O)Cc1ccc(OCCN(C)c2nc3ccccc3o2)cc1 [Example 24]
5-Lipoxygenase
  inhibition at 10 µM: 77%

## Cc1oc(-c2ccccc2F)nc1CCOc1ccc(CN(O)C(N)=O)cc1 [Example 6, 1-[4-[2-[2-(2-Fluoro-phenyl)-5-methyl-oxazol-4-yl]-ethoxy]-benzyl]-1-hydroxy-urea]
5-Lipoxygenase
  inhibition at 1 µM: 54%
Lipoxygenase; dose 10 (mg/kg)
  % Inhibition of LTB4: 71%
LTB4 Synthesis
  % Inhibition LTB4 Synthesis: 48%

## Cc1oc(-c2ccccc2)nc1CCOc1ccc(CN(O)C(N)=O)cc1F [Example 12, 1-[3-Fluoro-4-[2-(5-methyl-2-phenyl-oxazol-4-yl)-ethoxy]-benzyl]-1-hydroxy-urea]
5-Lipoxygenase
  inhibition at 1 µM: 71%
Lipoxygenase; dose 10 (mg/kg)
  % Inhibition of LTB4: 52%
LTB4 Synthesis
  % Inhibition LTB4 Synthesis: 58%

## O=C(O)Cc1ccccc1Nc1c(Cl)cccc1Cl [Diclofenac, reference compound]
LTB4 Synthesis; 10 mg/kg p.o.
  % Inhibition of LTB4: 0%

## Cc1ccc(-c2nc(CCOc3ccc(CN(O)C(N)=O)cc3)c(C)o2)cc1 [Example 11, 1-Hydroxy-1-[4-[2-(5-methyl-2-(p-tolyl)-oxazol-4-yl]-ethoxy]-benzyl]-urea]
5-Lipoxygenase
  inhibition at 1 µM: 40%

## Cc1oc(-c2ccc(SC(F)(F)F)cc2)nc1CCOc1ccc(CN(O)C(N)=O)cc1 [Example 16, 1-Hydroxy-1-[4-[2-[5-methyl-2-(4-trifluoromethylsulfanyl-phenyl)-oxazol-4yl]-ethoxy]-benzyl]-urea]
5-Lipoxygenase
  inhibition at 1 µM: 50%
